Laboratory results reported in ChEMBL document CHEMBL1201862, “PubChem BioAssay data set” (2004).
Activity calls are given as the source filed them.

What was measured:
Escherichia coli = assay: microbe, parasite or virus in culture
Cytochrome P450 3A4 = Cytochrome P450 3A4 (Homo sapiens, UniProt P08684);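 further: CYP3A4 tested as one member of a cytochrome P450 panel screen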
Cytochrome P450 2D6 = Cytochrome P450 2D6 (Homo sapiens, UniProt P10635);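 further: CYP2D6 member of a cytochrome P450 panel assay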
Cytochrome P450 2D6, sequence (P10635 whole entry): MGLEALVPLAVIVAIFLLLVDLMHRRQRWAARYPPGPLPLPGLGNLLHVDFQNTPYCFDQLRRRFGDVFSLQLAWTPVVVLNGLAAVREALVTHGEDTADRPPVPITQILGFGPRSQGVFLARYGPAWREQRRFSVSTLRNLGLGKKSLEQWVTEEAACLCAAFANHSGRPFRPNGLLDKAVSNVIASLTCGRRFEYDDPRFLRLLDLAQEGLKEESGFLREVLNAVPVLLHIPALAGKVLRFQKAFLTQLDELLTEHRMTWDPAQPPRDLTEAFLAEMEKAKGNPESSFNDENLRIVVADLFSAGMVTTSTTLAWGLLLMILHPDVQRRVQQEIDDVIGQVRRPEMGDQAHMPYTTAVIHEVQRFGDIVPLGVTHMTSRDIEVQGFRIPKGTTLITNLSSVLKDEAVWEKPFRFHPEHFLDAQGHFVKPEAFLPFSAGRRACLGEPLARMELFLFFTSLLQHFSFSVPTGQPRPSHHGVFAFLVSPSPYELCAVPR

Cytochrome P450 2C19 = Cytochrome P450 2C19 (Homo sapiens, UniProt P33261); assay: Cytochrome panel assay with activity outcomes. Panel member name: p450-cyp2c19 Compounds with AC50 equal or less than 10 uM are considered active; type: functional
Cytochrome P450 2C19, sequence (P33261 whole entry): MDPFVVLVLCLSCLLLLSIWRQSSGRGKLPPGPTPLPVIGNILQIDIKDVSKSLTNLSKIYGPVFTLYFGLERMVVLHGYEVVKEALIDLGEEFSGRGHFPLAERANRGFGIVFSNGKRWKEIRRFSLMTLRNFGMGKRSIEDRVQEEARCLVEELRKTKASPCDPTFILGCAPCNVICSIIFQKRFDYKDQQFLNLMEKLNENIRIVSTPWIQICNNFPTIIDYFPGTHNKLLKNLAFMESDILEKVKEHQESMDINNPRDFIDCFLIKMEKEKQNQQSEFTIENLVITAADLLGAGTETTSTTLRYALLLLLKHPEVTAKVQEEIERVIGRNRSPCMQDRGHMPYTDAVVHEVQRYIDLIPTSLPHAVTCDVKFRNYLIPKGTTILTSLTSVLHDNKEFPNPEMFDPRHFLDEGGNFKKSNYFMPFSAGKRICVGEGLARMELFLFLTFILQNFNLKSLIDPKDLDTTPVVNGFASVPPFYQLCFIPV

HeLa = assay: HeLa cell cytotoxicity, dose response, cytotoxicity control for MITF activator project, CellTiter-Glo luminescence, cherry-pick samples (AID 540259); type: functional, cell-based; settings: Homo sapiens
Protein Wnt-3a = Protein Wnt-3a (Mus musculus, UniProt P27467); assay: Wnt3a-driven reporter signaling inhibition, dose response, selectivity assay for Gli-SUFU antagonist project, Wnt-LIGHT cells, luminescence (AID 651570); type: functional; settings: read-out: IC50_Mean;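 further: Wnt-LIGHT reporter cells stimulated with conditioned medium from Wnt3a-producing cells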
Protein Wnt-3a, sequence (P27467 whole entry): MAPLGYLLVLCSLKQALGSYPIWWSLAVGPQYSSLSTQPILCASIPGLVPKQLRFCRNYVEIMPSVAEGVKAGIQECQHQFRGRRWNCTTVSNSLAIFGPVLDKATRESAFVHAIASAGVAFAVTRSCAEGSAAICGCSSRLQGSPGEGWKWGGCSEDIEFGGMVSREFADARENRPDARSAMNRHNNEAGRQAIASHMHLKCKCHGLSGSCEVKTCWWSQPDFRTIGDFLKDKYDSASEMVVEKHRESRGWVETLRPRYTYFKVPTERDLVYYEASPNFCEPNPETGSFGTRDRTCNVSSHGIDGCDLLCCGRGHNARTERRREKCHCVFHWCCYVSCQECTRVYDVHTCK

H9c2 = assay: cells; type: functional, cell-based; settings: Rattus norvegicus, H9c2, Myocardium;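 further: confirmatory concentration-response retest of ultra-high-throughput screening hits for modulation of myocardial damage; cell death induced by hydrogen peroxide oxidative stress; compound pretreatment for 60 min then peroxide exposure for 2 h; potency is for protecting the cells against peroxide damage rather than for killing them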
cells = type: functional
[1] = system: Streptococcus sp. 'group A'; assay: growth inhibition of control SK(-) GAS strain, dose response, counter-screen for streptokinase expression inhibitor project, luminescence, kanamycin, BacTiterGlo, confirmation (AID 1900); type: functional, organism-based
Streptococcus = assay: Group A Streptococcus viability loss, dose response, counter-screen for streptokinase expression inhibitor project, luminescence, BacTiterGlo (AID 1915); type: functional, organism-based;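 further: potency for reduction of bacterial viability or growth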
HEK293 = assay: inhibitors of LMP1-driven NF-kB reporter, dose response, cell-based, HEK293, luciferase, cherry-pick (AID 588343); type: functional; settings: Homo sapiens

Cytochrome P450 3A4, sequence (P08684 whole entry): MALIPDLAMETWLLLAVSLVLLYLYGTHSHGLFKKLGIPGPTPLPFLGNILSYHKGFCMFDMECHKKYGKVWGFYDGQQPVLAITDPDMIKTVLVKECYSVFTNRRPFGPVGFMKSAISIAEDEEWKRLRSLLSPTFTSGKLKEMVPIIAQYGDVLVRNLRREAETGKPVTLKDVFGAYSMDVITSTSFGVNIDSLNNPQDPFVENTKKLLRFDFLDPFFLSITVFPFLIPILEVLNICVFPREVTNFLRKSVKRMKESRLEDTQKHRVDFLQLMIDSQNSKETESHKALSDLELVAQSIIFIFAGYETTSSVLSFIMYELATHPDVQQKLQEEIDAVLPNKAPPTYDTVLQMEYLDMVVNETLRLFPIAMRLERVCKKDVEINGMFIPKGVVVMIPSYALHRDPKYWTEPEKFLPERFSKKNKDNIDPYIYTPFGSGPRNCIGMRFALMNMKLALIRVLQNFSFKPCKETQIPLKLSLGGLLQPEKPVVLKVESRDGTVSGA

CNC(=O)CNC(=O)Nc1ccc(C)cc1
AC50 (Escherichia coli): 29.8 µM (active)

CCCN1CCN(C(=O)CN2C(=O)CC(C)(C)S(=O)(=O)c3ccccc32)CC1
AC50 (Cytochrome P450 3A4): 12.6 µM (inconclusive) | AC50 (Cytochrome P450 2D6): inconclusive | AC50 (Cytochrome P450 2C19): inconclusive

COc1cc2c(C)nc3c(cnn3-c3ccccc3)c2cc1OC
AC50 (HeLa): 86.7 µM (active)

COc1nnc(-c2ccc(N3CCCCC3)c(N)c2)c2ccccc12
IC50 (Protein Wnt-3a): 25.8 µM (inactive)

CC12C=CC(=O)CC1CCC1C2CCC2(C)C(O)C(O)CC12 (configuration not stated)
IC50 (H9c2): > 79 µM (inactive)

Cc1ccc2c(c1)nc1c3ccccc3nc(-c3ccccc3N)n21
IC50 (H9c2): > 79 µM (inactive)

COc1ccc(/C=N/NC(=O)c2ccc(COc3cccc4cccnc34)cc2)cc1OC
IC50 (H9c2): > 79 µM (inactive)

CN1CCN(c2cc3c(cc2F)c(=O)c(C(=O)O)cn3CCF)CC1
IC50 (cells): 3.08 µM (active) | AC50 (Escherichia coli): 2.57 µM (active) | EC50 [1]: 5.58 µM (active) | EC50 (Streptococcus): 7.64 µM (active)

CCc1ccc(/C=N/NC(=O)c2ccccn2)cc1
IC50 (cells): 5.9 µM (active) | AC50 (HEK293): 3.11 µM (active)

COc1ccc(/N=C2\SC(C(=O)O)CC(=O)N2Cc2ccc(OC)c(OC)c2)cc1 (configuration not stated)
AC50 (Escherichia coli): 86.2 µM (active)

O=C(Nc1ccccn1)c1ccccc1
AC50 (HeLa): 83.2 µM (active)
